Key:
[1] = system: murine fibroblast healthy cell line (NIH3T3); assay: MTT cell viability assay; assay type: cell-based; settings: 24 h, 0.000316 µM to 1000 µM, read-out: IC50 against NIH3T3
Method: The active compounds (4a, 4b, 4e, 4i, 4m, 4n, 4o, and 4t) were chosen to determine their cytotoxic activity toward a murine fibroblast healthy cell line (NIH3T3). After incubating the cells with active compounds at concentrations of 0.000316 µM to1000 µM for 24 h, the cell viability was measured using the 3-(4,5-dimethylthiazol-2-yl)-2,5-diphenyltetrazolium (MTT) assay. The inhibition percentage was calculated for each concentration of the test compounds. The IC50 values of the compounds were determined using a non-linear regression analysis over the calculated percentage inhibition values, and they are presented in Table 2. Accordingly, the cytotoxicity test proposed that the active derivatives were nontoxic against NIH3T3 cells at their active concentrations against BChE.
Healthy murine embryonic fibroblast cells (NIH3T3 cell line) were used for the cytotoxicity tests. The cell line and selected compounds were prepared for an MTT assay as reported previously. The optical densities (OD) of 96 well plates were recorded at 540 nm. […]

BChE (Human) = target: T1, BChE (Human) (Homo sapiens, UniProt P06276); assay: BChE inhibition, Ellman's method; assay type: biochemical; settings: for IC50: read-out: BChE (Human) IC50
T1 construct: purchased Sigma-Aldrich (Steinheim, Germany)
Method: (§1) The assay was performed in two steps.
(§2) All enzymes were obtained from Sigma-Aldrich (Steinheim, Germany). Ellman’s reagent and the substrates were obtained from Fluka (Buchs, Switzerland). The chemicals used to prepare the buffer solution were purchased from Merck (Darmstadt, Germany).
(§3) The enzyme inhibitory activities of the synthesized compounds were investigated by applying Ellman’s method. Enzyme solutions were dissolved in gelatin solution (1%; 2.5 units/mL). […] Then, the reaction was initiated by the addition of Ellman’s reagent 5,5′-Dithiobis(2-nitrobenzoic acid) (DTNB; 20 µL/well, 10 mM) and the substrate (10 µL/well, 75 mM). […] The enzyme solution was processed as a control. All readings were adjusted with blank-reading. All assays were performed in four independent wells. […] Absorbance differences between the two readings were taken, and percentage inhibition rates were calculated according to the following formula: % Inhibition=[(A(C)−A(B))−(A(I)−A(B))]/(A(C)−A(B))×100.
(§4) • Blank (B): the well in which the inhibitor compound and substrate were not added; • Control (C): the well where the inhibitor compound was not added; • A(B): the difference in absorbance reading for the blank; • A(C): the difference in absorbance reading for the control; • A(I): the difference in absorbance reading for the inhibitor compounds.

BChE (Equine) = target: T2, BChE (Equine) (Equus caballus, UniProt P81908); assay: biochemical; assay type: biochemical
T2 construct: purchased Sigma-Aldrich (Steinheim, Germany)
Method: as §1, §2, §3, §4

AChE (Human) = target: T3, AChE (Human) (Homo sapiens, UniProt P22303); assay: AChE inhibition, Ellman's method; assay type: biochemical
T3 construct: purchased Sigma-Aldrich (Steinheim, Germany)
Method: as §1, §2, §3, §4

[2] = target: T4, AChE (Electrophorus electricus) (Electrophorus electricus, UniProt O42275); assay: AChE inhibition, Ellman's method; assay type: biochemical
T4 construct: purchased Sigma-Aldrich (Steinheim, Germany)
Method: as §1, §2, §3, §4

T3 sequence (P22303 32-614): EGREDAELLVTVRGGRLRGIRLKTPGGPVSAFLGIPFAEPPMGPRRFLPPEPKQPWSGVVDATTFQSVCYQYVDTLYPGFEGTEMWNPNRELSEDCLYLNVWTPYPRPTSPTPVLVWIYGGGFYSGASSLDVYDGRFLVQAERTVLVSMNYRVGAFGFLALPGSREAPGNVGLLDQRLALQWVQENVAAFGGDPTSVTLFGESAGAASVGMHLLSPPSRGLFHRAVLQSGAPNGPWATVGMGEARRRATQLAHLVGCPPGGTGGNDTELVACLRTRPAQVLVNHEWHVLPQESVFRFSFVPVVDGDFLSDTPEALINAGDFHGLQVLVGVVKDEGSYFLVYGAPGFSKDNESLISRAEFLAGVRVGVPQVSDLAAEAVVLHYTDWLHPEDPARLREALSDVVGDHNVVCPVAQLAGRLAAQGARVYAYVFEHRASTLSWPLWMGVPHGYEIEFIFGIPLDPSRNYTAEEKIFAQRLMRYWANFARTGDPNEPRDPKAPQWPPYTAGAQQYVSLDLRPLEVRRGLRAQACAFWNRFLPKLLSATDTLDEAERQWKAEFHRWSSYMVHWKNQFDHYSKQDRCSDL
T2 sequence (P81908 whole entry): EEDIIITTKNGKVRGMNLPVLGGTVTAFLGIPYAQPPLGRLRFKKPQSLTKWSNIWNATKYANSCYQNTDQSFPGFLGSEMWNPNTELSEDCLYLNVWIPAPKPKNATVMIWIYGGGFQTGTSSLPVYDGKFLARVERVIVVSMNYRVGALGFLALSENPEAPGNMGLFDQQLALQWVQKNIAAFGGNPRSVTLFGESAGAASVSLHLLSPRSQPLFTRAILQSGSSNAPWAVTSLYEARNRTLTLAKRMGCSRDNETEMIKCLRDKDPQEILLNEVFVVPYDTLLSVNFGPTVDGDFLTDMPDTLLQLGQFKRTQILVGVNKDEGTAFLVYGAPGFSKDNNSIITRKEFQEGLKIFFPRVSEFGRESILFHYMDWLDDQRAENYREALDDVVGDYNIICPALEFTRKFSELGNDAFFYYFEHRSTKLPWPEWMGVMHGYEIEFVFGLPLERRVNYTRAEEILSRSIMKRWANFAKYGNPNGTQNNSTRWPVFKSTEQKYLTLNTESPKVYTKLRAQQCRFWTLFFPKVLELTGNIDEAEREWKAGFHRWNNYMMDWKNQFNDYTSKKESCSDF
T4 sequence (O42275 24-633): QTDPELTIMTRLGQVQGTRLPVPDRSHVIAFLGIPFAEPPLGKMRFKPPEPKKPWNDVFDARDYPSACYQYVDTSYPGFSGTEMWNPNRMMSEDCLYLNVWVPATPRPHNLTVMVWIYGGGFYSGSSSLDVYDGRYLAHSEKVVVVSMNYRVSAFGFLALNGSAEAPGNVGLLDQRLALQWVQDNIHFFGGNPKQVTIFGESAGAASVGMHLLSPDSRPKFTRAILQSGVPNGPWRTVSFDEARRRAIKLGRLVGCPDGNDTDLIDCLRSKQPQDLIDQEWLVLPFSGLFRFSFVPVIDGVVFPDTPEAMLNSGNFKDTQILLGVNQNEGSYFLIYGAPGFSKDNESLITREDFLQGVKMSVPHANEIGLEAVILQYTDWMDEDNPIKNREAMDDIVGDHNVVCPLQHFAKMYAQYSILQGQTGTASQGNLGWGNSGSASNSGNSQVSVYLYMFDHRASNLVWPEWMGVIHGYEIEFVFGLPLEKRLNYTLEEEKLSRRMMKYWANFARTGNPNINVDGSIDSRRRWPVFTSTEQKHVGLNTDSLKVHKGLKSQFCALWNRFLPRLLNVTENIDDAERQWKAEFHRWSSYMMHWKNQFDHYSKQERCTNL
T1 sequence (P06276 29-602): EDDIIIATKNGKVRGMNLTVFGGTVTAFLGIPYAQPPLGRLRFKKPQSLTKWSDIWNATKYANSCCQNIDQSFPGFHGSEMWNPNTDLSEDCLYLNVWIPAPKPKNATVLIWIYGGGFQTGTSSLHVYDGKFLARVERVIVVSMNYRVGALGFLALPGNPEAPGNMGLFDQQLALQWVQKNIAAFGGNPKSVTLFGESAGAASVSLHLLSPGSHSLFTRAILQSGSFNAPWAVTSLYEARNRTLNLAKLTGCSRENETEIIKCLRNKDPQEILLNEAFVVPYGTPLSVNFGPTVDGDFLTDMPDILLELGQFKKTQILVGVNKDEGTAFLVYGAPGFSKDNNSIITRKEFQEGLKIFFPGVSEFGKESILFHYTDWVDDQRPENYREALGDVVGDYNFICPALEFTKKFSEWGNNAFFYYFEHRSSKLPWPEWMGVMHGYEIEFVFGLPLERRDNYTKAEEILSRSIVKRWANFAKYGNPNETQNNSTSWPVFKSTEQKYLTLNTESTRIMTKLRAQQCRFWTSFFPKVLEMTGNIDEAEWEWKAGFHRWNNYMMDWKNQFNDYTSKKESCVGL

SMILES	BChE (Human) inhibitory activity (%) ± SD (BChE (Human); 10^-3 M) [%]	BChE (Human) inhibitory activity (%) ± SD (BChE (Human); 10^-4 M)	BChE (Human) inhibitory activity (%) ± SD (BChE (Human); 10^-5 M) [%]	BChE (Human) inhibitory activity (%) ± SD (BChE (Human); 10^-6 M) [%]	BChE (Human) inhibitory activity (%) ± SD (BChE (Human); 10^-7 M) [%]	BChE (Human) inhibitory activity (%) ± SD (BChE (Human); 10^-8 M) [%]	BChE (Human) inhibitory activity (%) ± SD (BChE (Human); 10^-9 M) [%]	IC50 (BChE (Human)) [nM]	IC50 (BChE (Equine)) [nM]	BChE (Equine) inhibitory activity (%) ± SD (BChE (Equine); 10^-3 M) [%]	BChE (Equine) inhibitory activity (%) ± SD (BChE (Equine); 10^-4 M)	BChE (Equine) inhibitory activity (%) ± SD (BChE (Equine); 10^-5 M) [%]	BChE (Equine) inhibitory activity (%) ± SD (BChE (Equine); 10^-6 M) [%]	BChE (Equine) inhibitory activity (%) ± SD (BChE (Equine); 10^-7 M) [%]	BChE (Equine) inhibitory activity (%) ± SD (BChE (Equine); 10^-8 M) [%]	BChE (Equine) inhibitory activity (%) ± SD (BChE (Equine); 10^-9 M) [%]	AChE (Human) inhibitory activity (%) ± SD (AChE (Human); 10^-3 M) [%]	AChE (Human) inhibitory activity (%) ± SD (AChE (Human); 10^-4 M) [%]	AChE (Electrophorus electricus) inhibitory activity (%) ± SD ([2]; 10^-3 M) [%]	AChE (Electrophorus electricus) inhibitory activity (%) ± SD ([2]; 10^-4 M) [%]	further results
CN(C)CCN1CCN(C(=S)SCC(=O)Nc2c3ccccc3nc3ccccc23)CC1 [Compound 4a, 2-(9-Acridinylamino)-2-oxoethyl 4-(2-(dimethylamino)ethyl)piperazine-1-carbodithioate]	98.50±2.46	* 93.25 ± 2.24%	86.20±1.46	55.00±1.11	36.21±0.97	30.20±0.68	15.79±0.81	243 ± 9	226 ± 8	99.13±3.21	* 91.13 ± 2.94%	84.80±2.76	52.10±1.04	39.90±0.81	28.24±0.54	19.69±0.99	62.20±1.05	18.15 ± 0.51	60.13±1.54	17.03 ± 0.48	IC50 [1]: 26800 nM
CN(C)CCCN1CCN(C(=S)SCC(=O)Nc2c3ccccc3nc3ccccc23)CC1 [Compound 4b, 2-(9-Acridinylamino)-2-oxoethyl 4-(3-(dimethylamino)propyl)piperazine-1-carbodithioate]	97.55±2.05	* 84.18 ± 2.21%	72.99 ±1.35	45.26±0.85	40.87±0.67	35.28±0.53	28.74±0.50	222 ± 10	264 ± 12	98.16±3.11	* 82.50 ± 2.07%	70.30 ±1.80	46.10±0.74	41.80±0.81	33.04±0.78	26.35±0.77	75.66±1.17	35.49 ± 1.00	79.95±1.78	32.41 ± 1.01	IC50 [1]: 25600 nM
O=C(CSC(=S)N1CCN(CCO)CC1)Nc1c2ccccc2nc2ccccc12 [Compound 4e, 2-(9-Acridinylamino)-2-oxoethyl 4-(2-hydroxyethyl)piperazine-1-carbodithioate]	98.95±2.10	* 96.57 ± 2.03%	55.00±1.20	30.62±1.28	26.54±0.74	17.89±0.53	8.72±0.30	1370 ± 57	1420 ± 68	97.00±3.16	* 95.98 ± 2.88%	57.53±1.89	29.52±1.07	24.26±0.54	18.89±0.84	10.77±0.58	50.22±1.12	10.13 ± 0.51	48.67±1.51	7.09 ± 0.64	IC50 [1]: 325000 nM
O=C(CSC(=S)N1CCOCC1)Nc1c2ccccc2nc2ccccc12 [Compound 4r, 2-(9-Acridinylamino)-2-oxoethyl morpholine-4-carbodithioate]	94.18±2.62	43.29 ± 1.17%	–	–	–	–	–	–	–	91.26±3.42	45.30 ± 1.88%	–	–	–	–	–	64.93±1.21	40.70 ± 1.00	68.20±1.69	37.33 ± 1.03	–
O=C(CSC(=S)N1CCCCC1)Nc1c2ccccc2nc2ccccc12 [Compound 4s, 2-(9-Acridinylamino)-2-oxoethyl piperidine-1-carbodithioate]	84.27±2.16	34.99 ± 0.63%	–	–	–	–	–	–	–	86.72±3.07	38.40 ± 0.74%	–	–	–	–	–	49.05±0.88	35.20 ± 1.12	44.51±0.96	32.17 ± 1.23	–
CC1CCCCN1C(=S)SCC(=O)Nc1c2ccccc2nc2ccccc12 (centres unmarked) [Compound 4t, 2-(9-Acridinylamino)-2-oxoethyl 2-methylpiperidine-1-carbodithioate]	97.28±3.00	* 54.26 ± 1.27%	48.19±1.08	38.35±0.88	36.47±0.60	32.40±0.57	29.77±0.41	1610 ± 62	1520 ± 72	96.06±3.61	* 55.00 ± 1.74%	49.04±0.68	41.33±0.41	35.75±0.53	30.66±0.59	28.50±0.66	85.44±1.72	14.51 ± 0.44	81.22±2.77	15.94 ± 0.42	–
O=C(CSC(=S)N1CCC(Cc2ccccc2)CC1)Nc1c2ccccc2nc2ccccc12 [Compound 4u, 2-(9-Acridinylamino)-2-Oxoethyl 4-Benzylpiperidine-1-Carbodithioate]	38.33±0.87	31.21 ± 0.50%	–	–	–	–	–	–	–	32.20±0.59	29.50 ± 0.48%	–	–	–	–	–	65.77±1.17	30.71 ± 0.52	69.30±1.28	25.88 ± 0.74	–

— paper PMC6222329 (Molecules : A Journal of Synthetic Chemistry and Natural …, 2018)
